# pEC50: −log10 of the molar value.
# Target: T1, human TREM2 (Homo sapiens, UniProt Q9NZC2)
# T1 construct: expressed in transfected cells; host or cells: HEK293T (HEK293T-hTREM2 cells)
# Experiment: TREM2 agonist potency by cellular phosphorylation of Spleen Tyrosine Kinase (Syk), AlphaLisa, HEK293T-hTREM2 cells
# Type: cell-based
# Details: not given
# Outline: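 HEK293T cells co-expressing human TREM2 and DAP12, plated 20–24 h before use. Compounds applied 45 min at room temperature in assay buffer, then cells lysed and phospho-Syk quantified by AlphaLisa. Percent activation from a standard curve; EC50 from a four-parameter variable-slope fit.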
# T1 sequence (Q9NZC2 19-230): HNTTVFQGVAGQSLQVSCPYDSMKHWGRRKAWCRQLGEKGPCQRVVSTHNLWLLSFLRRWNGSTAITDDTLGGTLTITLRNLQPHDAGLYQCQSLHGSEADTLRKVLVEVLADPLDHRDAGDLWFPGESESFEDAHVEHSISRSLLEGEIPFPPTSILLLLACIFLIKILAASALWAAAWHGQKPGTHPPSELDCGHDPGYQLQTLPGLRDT
# T1 sequence (O43914 22-113 partner): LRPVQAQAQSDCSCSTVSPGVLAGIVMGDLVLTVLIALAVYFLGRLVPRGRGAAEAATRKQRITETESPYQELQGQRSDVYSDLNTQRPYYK
row,pEC50,SMILES
1,> 7.00,"[2H]C([2H])([2H])n1cc([C@H]2C[C@@H](c3nc(-c4ccc(C(F)(F)F)cc4F)c4nc(OC)c(C)nc4n3)CCO2)ccc1=O [Example 132, 5-[(2R,4S)-4-[4-[2-fluoro-4-(trifluoromethyl)phenyl]-6-methoxy-7-methyl-pteridin-2-yl]tetrahydropyran-2-yl]-1-(trideuteriomethyl)pyridin-2-one]"

# Same assay, conditions: hTREM2 EC50 Data (HEK293 Cells); Syk phosphorylation, AlphaLisa; read-out: hTREM2 EC50
row,SMILES,pEC50
1,"COc1nc2c(-c3ccc(C(F)(F)F)cc3F)nc([C@H]3CCO[C@@H](c4ccc(=O)n(C)c4)C3)nc2nc1C [Example 129, 1-methyl-5-[(2R,4S)-4-[4-[2-fluoro-4-(trifluoromethyl)phenyl]-6-methoxy-7-methyl-pteridin-2-yl]tetrahydropyran-2-yl]pyridin-2-one]",> 7.00
2,"COc1nc2c(-c3ccc(C(F)(F)F)cc3F)nc([C@@H]3CCO[C@H](c4ccc(=O)n(C)c4)C3)nc2nc1C [Example 130, 1-methyl-5-[(2S,4R)-4-[4-[2-fluoro-4-(trifluoromethyl)phenyl]-6-methoxy-7-methyl-pteridin-2-yl]tetrahydropyran-2-yl]pyridin-2-one]",> 7.00
3,"COc1nc2c(C3CCCCC3)nc([C@H]3CCO[C@@H](c4ccc(=O)n(C)c4)C3)nc2nc1C [Example 136, 5-[(2R)-4-(4-cyclohexyl-6-methoxy-7-methyl-pteridin-2-yl)tetrahydropyran-2-yl]-1-methyl-pyridin-2-one]",> 7.00
4,"COc1nc2c(C3CCC(F)(F)CC3)nc([C@H]3CCO[C@@H](c4ccc(=O)n(C)c4)C3)nc2nc1C [Example 138, 5-[(2R,4S)-4-[4-(4,4-difluorocyclohexyl)-6-methoxy-7-methyl-pteridin-2-yl]tetrahydropyran-2-yl]-1-methyl-pyridin-2-one]",> 7.00
5,"COc1nc2c(C34CC(C(F)(F)F)(C3)C4)nc([C@H]3CCO[C@@H](c4ccc(=O)n(C)c4)C3)nc2nc1C [Example 140, 5-[(2R,4S)-4-[6-methoxy-7-methyl-4-[3-(trifluoromethyl)-1-bicyclo[1.1.1]pentanyl]pteridin-2-yl]tetrahydropyran-2-yl]-1-methyl-pyridin-2-one]",> 7.00
6,"COc1nc2c(C34CC(C(F)(F)F)(C3)C4)nc([C@H]3CCO[C@@H](c4ccc(=O)n(CC#N)c4)C3)nc2nc1C [Example 145, 2-[5-[(2R,4S)-4-[6-methoxy-7-methyl-4-[3-(trifluoromethyl)-1-bicyclo-[1.1.1]pentanyl]pteridin-2-yl]tetrahydropyran-2-yl]-2-oxo-1-pyridyl]acetonitrile]",> 7.00
7,"[2H]C([2H])([2H])n1cc([C@H]2C[C@@H](c3nc(C45CC(C(F)(F)F)(C4)C5)c4nc(OC)c(C)nc4n3)CCO2)ccc1=O [Example 147, 5-((2R,4S)-4-(6-methoxy-7-methyl-4-(3-(trifluoromethyl)-bicyclo[1.1.1]pentan-1-yl)pteridin-2-yl)tetrahydro-2H-pyran-2-yl)-1-(methyl-d3)pyridin-2(1H)-one]",> 7.00
8,"[2H]C([2H])([2H])n1cc([C@H]2C[C@@H](c3nc(C45CC(C(F)(F)F)(C4)C5)c4nc(OC)c(C)nc4n3)CCO2)cc(C)c1=O [Example 149, 5-[(2R,4S)-4-[6-methoxy-7-methyl-4-[3-(trifluoromethyl)-1-bicyclo-[1.1.1]pentanyl]pteridin-2-yl]tetrahydropyran-2-yl]-3-methyl-1-(trideuteriomethyl)-pyridin-2-one]",> 7.00
9,"Cc1nc2nc([C@H]3CCO[C@@H](c4ccc(=O)n(C)c4)C3)nc(C34CC(C(F)(F)F)(C3)C4)c2nc1C1CC1 [Example 158, 1-methyl-5-[(2R,4S)-4-[6-cyclopropyl-7-methyl-4-[3-(trifluoro-methyl)-1-bicyclo[1.1.1]pentanyl]pteridin-2-yl]tetrahydropyran-2-yl]pyridin-2-one]",> 7.00
10,Cc1nc2nc([C@H]3CCO[C@@H](c4cnc(=O)n(C)c4)C3)nc(C34CC(C(F)(F)F)(C3)C4)c2nc1C [Example 161],> 7.00
11,"Cc1nc2nc([C@H]3CCO[C@H](c4cnc(=O)n(C)c4)C3)nc(C34CC(C(F)(F)F)(C3)C4)c2nc1C [Example 163, 1-methyl-5-[(2S,4S)-4-[6,7-dimethyl-4-[3-(trifluoromethyl)-1-bicyclo[1.1.1]pentanyl]pteridin-2-yl]tetrahydropyran-2-yl]pyrimidin-2-one]",> 7.00
12,"Cc1nc2nc([C@@H]3CCO[C@@H](c4ccc(=O)n(C)c4)C3)cc(C34CC(C(F)(F)F)(C3)C4)c2nc1C [Example 169, 1-methyl-5-[(2R,4R)-4-[2,3-dimethyl-8-[3-(trifluoromethyl)-1-bicyclo-[1.1.1]pentanyl]pyrido[2,3-b]pyrazin-6-yl]tetrahydropyran-2-yl]pyridin-2-one]",> 7.00
13,"C[C@@H]1CN(c2nc(-c3ccc(F)cc3F)c3sc(N(C)C)nc3n2)C[C@H](c2ccc(=O)[nH]c2)O1 [Example 173, 5-[(2S,6R)-4-[7-(2,4-difluorophenyl)-2-(dimethylamino)thiazolo[4,5-d]pyrimidin-5-yl]-6-methyl-morpholin-2-yl]-1H-pyridin-2-one]",> 7.00
14,"C[C@@H]1CN(c2nc(-c3ccc(F)cc3F)c3sc(N(C)C)nc3n2)C[C@H](c2ccc(=O)n(N)c2)O1 [Example 174, 1-amino-5-[(2S,6R)-4-[7-(2,4-difluorophenyl)-2-(dimethylamino)thiazolo[4,5-d]pyrimidin-5-yl]-6-methyl-morpholin-2-yl]pyridin-2-one]",> 7.00

# Other lines, results leading:
row,pEC50,SMILES
1,> 7.00,"Cc1nc2nc([C@@H]3CCO[C@H](c4ccc(=O)n(C)c4)C3)nc(-c3ccc(C(F)(F)F)cc3F)c2nc1C(F)F [Example 127, 5-[(2S,4R)-4-[6-(difluoromethyl)-4-[2-fluoro-4-(trifluoromethyl)phenyl]-7-methyl-pteridin-2-yl]tetrahydropyran-2-yl]-1-methyl-pyridin-2-one]"
2,> 7.00,COc1nc2c(-c3ccc(C(F)(F)F)cc3F)nc(C3CCOC(c4ccc(=O)n(C)c4)C3)nc2nc1C (stereo not drawn) [Example 131]
3,> 7.00,"COc1nc2c(-c3ccc(C(F)(F)F)cc3F)nc([C@H]3CCO[C@@H](c4ccc(=O)n(C5CC5)c4)C3)nc2nc1C [Example 134, 1-cyclopropyl-5-[(2R,4S)-4-[4-[2-fluoro-4-(trifluoromethyl)phenyl]-6-methoxy-7-methyl-pteridin-2-yl]tetrahydropyran-2-yl]pyridin-2-one]"
4,> 7.00,"COc1nc2c(C34CC(C(F)(F)F)(C3)C4)nc([C@H]3CCO[C@@H](c4ccc(=O)n(C5CC5)c4)C3)nc2nc1C [Example 142, 1-cyclopropyl-5-[(2R,4S)-4-[6-methoxy-7-methyl-4-[3-(trifluoromethyl)-1-bicyclo-[1.1.1]pentanyl]pteridin-2-yl]tetrahydropyran-2-yl]pyridin-2-one]"
5,> 7.00,"COc1nc2c(C34CC(C(F)(F)F)(C3)C4)nc([C@H]3CCO[C@@H](c4ccc(=O)n(-c5csc(C)n5)c4)C3)nc2nc1C [Example 153, 5-((2R,4S)-4-(6-methoxy-7-methyl-4-(3-(trifluoromethyl)-bicyclo[1.1.1]pentan-1-yl)pteridin-2-yl)tetrahydro-2H-pyran-2-yl)-1-(2-methylthiazol-4-yl)pyridin-2(1H)-one]"
6,> 7.00,"Cc1nc2c(C34CC(C(F)(F)F)(C3)C4)nc([C@H]3CCO[C@@H](c4ccc(=O)n(C)c4)C3)nc2nc1C1CC1 [Example 155, 1-methyl-5-[(2R,4S)-4-[7-cyclopropyl-6-methyl-4-[3-(trifluoro-methyl)-1-bicyclo[1.1.1]pentanyl]-pteridin-2-yl]tetrahydropyran-2-yl]pyridin-2-one]"
7,> 7.00,"Cc1nc2c(C34CC(C(F)(F)F)(C3)C4)nc([C@@H]3CCO[C@H](c4ccc(=O)n(C)c4)C3)nc2nc1C1CC1 [Example 156, 1-methyl-5-[(2S,4R)-4-[7-cyclopropyl-6-methyl-4-[3-(trifluoro-methyl)-1-bicyclo[1.1.1]pentanyl]pteridin-2-yl]tetrahydropyran-2-yl]pyridin-2-one]"
8,> 7.00,"Cc1nc2nc([C@@H]3CCO[C@H](c4ccc(=O)n(C)c4)C3)nc(C34CC(C(F)(F)F)(C3)C4)c2nc1C1CC1 [Example 159, 1-methyl-5-[(2S,4R)-4-[6-cyclopropyl-7-methyl-4-[3-(trifluoro-methyl)-1-bicyclo[1.1.1]pentanyl]pteridin-2-yl]tetrahydropyran-2-yl]pyridin-2-one]"
9,> 7.00,"Cc1nc2nc([C@@H]3CCO[C@H](c4cnc(=O)n(C)c4)C3)nc(C34CC(C(F)(F)F)(C3)C4)c2nc1C [Example 162, 1-methyl-5-[(2S,4R)-4-[6,7-dimethyl-4-[3-(trifluoromethyl)-1-bicyclo[1.1.1]-pentanyl]pteridin-2-yl]tetrahydropyran-2-yl]pyrimidin-2-one]"
10,> 7.00,"Cc1nc2nc([C@H]3CCO[C@@H](c4ccc(=O)n(C)c4)C3)cc(C34CC(C(F)(F)F)(C3)C4)c2nc1C [Example 167, 1-methyl-5-[(2R,4S)-4-[2,3-dimethyl-8-[3-(trifluoromethyl)-1-bicyclo[1.1.1]pentanyl]pyrido[2,3-b]pyrazin-6-yl]tetrahydropyran-2-yl]pyridin-2-one]"
11,> 7.00,"Cc1nc2nc([C@@H]3CCO[C@H](c4ccc(=O)n(C)c4)C3)cc(C34CC(C(F)(F)F)(C3)C4)c2nc1C [Example 168, 1-methyl-5-[(2S,4R)-4-[2,3-dimethyl-8-[3-(trifluoromethyl)-1-bicyclo[1.1.1]pentanyl]pyrido[2,3-b]pyrazin-6-yl]tetrahydropyran-2-yl]pyridin-2-one]"
12,6.30 to 7.00,"Cc1nc2nc([C@H]3CCO[C@H](c4ccc(=O)n(C)c4)C3)cc(C34CC(C(F)(F)F)(C3)C4)c2nc1C [Example 170, 1-methyl-5-[(2S,4S)-4-[2,3-dimethyl-8-[3-(trifluoromethyl)-1-bicyclo[1.1.1]pentanyl]pyrido[2,3-b]pyrazin-6-yl]tetrahydropyran-2-yl]pyridin-2-one]"

# Source: patent US20260356841A1, “HETEROCYCLIC PYRIDINONE COMPOUNDS AS TRIGGERING RECEPTOR EXPRESSED ON MYELOID CELLS 2 AGONISTS AND METHODS OF USE” (Vigil Neuroscience, Inc., priority 2023, published 2026)
